From paper PMC4522657, “Identification of a DYRK1A Inhibitor that Induces Degradation of the Target Kinase using Co-chaperone CDC37 fused with Luciferase nanoKAZ” (Scientific Reports, 2015)

What was measured:
Test in all cases: Kinase panel, CaNDY 1 µM
Assay type in all cases: biochemical
Conditions in all cases: CaNDY 1 µM relative to DMSO
BTK = molecular target: T1, BTK (Homo sapiens, UniProt Q06187)
T1 construct: purchased Carna Biosciences
In short: (§1)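 Inhibition values reflect the P/(P + substrate) ratio in treated versus compound-free wells, measured after electrophoretic separation. Assays ran for an hour at room temperature with DMSO held at 1%, using baculovirus-expressed, GST-tagged full-length human kinases.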

EPHB3 = molecular target: T2, EPHB3 (Homo sapiens, UniProt P54753)
T2 construct: purchased Carna Biosciences
In short: as §1

PKD1 = molecular target: T3, PKD1 (Homo sapiens, UniProt Q15139)
T3 construct: purchased Carna Biosciences
In short: as §1

SPHK1 = molecular target: T4, SPHK1 (Homo sapiens, UniProt Q9NYA1)
T4 construct: purchased Carna Biosciences
In short: as §1

JNK1 = molecular target: T5, JNK1 (Homo sapiens, UniProt P45983)
T5 construct: purchased Carna Biosciences
In short: as §1

MELK = molecular target: T6, MELK (Homo sapiens, UniProt Q14680)
T6 construct: purchased Carna Biosciences
In short: as §1

PLK3 = molecular target: T7, PLK3 (Homo sapiens, UniProt Q9H4B4)
T7 construct: purchased Carna Biosciences
In short: as §1

EGFR(d746-750) = molecular target: T8, EGFR(d746-750) (Homo sapiens, UniProt P00533, DEL746-750)
T8 construct: purchased Carna Biosciences
In short: as §1

PDGFRα = molecular target: T9, PDGFRα (Homo sapiens, UniProt P16234)
T9 construct: purchased Carna Biosciences
In short: as §1

CLK3 = molecular target: T10, CLK3 (Homo sapiens, UniProt P49761)
T10 construct: purchased Carna Biosciences
In short: as §1

KIT(T670I) = molecular target: T11, KIT(T670I) (Homo sapiens, UniProt P10721, T670I)
T11 construct: purchased Carna Biosciences
In short: as §1

QIK = molecular target: T12, QIK (Homo sapiens, UniProt Q9H0K1)
T12 construct: purchased Carna Biosciences
In short: as §1

EGFR(L861Q) = molecular target: T13, EGFR(L861Q) (Homo sapiens, UniProt P00533, L861Q)
T13 construct: purchased Carna Biosciences
In short: as §1

TRKB = molecular target: T14, TRKB (Homo sapiens, UniProt Q16620)
T14 construct: purchased Carna Biosciences
In short: as §1

EEF2K = molecular target: T15, EEF2K (Homo sapiens, UniProt O00418)
T15 construct: purchased Carna Biosciences
In short: as §1

CDK4/CycD3 = molecular target: T16, CDK4/CycD3 (Homo sapiens, UniProt P11802)
T16 construct: purchased Carna Biosciences
In short: as §1

CDK3/CycE1 = molecular target: T17, CDK3/CycE1 (Homo sapiens, UniProt Q00526)
T17 construct: purchased Carna Biosciences
In short: as §1

LYNa = molecular target: T18, LYNa (Homo sapiens, UniProt P07948)
T18 construct: purchased Carna Biosciences
In short: as §1

MARK2 = molecular target: T19, MARK2 (Homo sapiens, UniProt Q7KZI7)
T19 construct: purchased Carna Biosciences
In short: as §1

DAPK1 = molecular target: T20, DAPK1 (Homo sapiens, UniProt P53355)
T20 construct: purchased Carna Biosciences
In short: as §1

PEK = molecular target: T21, PEK (Homo sapiens, UniProt Q9NZJ5)
T21 construct: purchased Carna Biosciences
In short: as §1

KIT(V654A) = molecular target: T22, KIT(V654A) (Homo sapiens, UniProt P10721, V654A)
T22 construct: purchased Carna Biosciences
In short: as §1

MUSK = molecular target: T23, MUSK (Homo sapiens, UniProt O15146)
T23 construct: purchased Carna Biosciences
In short: as §1

SGK = molecular target: T24, SGK (Homo sapiens, UniProt O00141)
T24 construct: purchased Carna Biosciences
In short: as §1

NEK4 = molecular target: T25, NEK4 (Homo sapiens, UniProt P51957)
T25 construct: purchased Carna Biosciences
In short: as §1

DYRK3 = molecular target: T26, DYRK3 (Homo sapiens, UniProt O43781)
T26 construct: purchased Carna Biosciences
In short: as §1

PKCι = molecular target: T27, PKCι (Homo sapiens, UniProt P41743)
T27 construct: purchased Carna Biosciences
In short: as §1

RON = molecular target: T28, RON (Homo sapiens, UniProt Q04912)
T28 construct: purchased Carna Biosciences
In short: as §1

MARK1 = molecular target: T29, MARK1 (Homo sapiens, UniProt Q9P0L2)
T29 construct: purchased Carna Biosciences
In short: as §1

CDK5/p25 = molecular target: T30, CDK5/p25 (Homo sapiens, UniProt Q00535)
T30 construct: purchased Carna Biosciences
In short: as §1

ROCK2 = molecular target: T31, ROCK2 (Homo sapiens, UniProt O75116)
T31 construct: purchased Carna Biosciences
In short: as §1

LTK = molecular target: T32, LTK (Homo sapiens, UniProt P29376)
T32 construct: purchased Carna Biosciences
In short: as §1

FRK = molecular target: T33, FRK (Homo sapiens, UniProt P42685)
T33 construct: purchased Carna Biosciences
In short: as §1

skMLCK = molecular target: T34, skMLCK (Homo sapiens, UniProt Q9H1R3)
T34 construct: purchased Carna Biosciences
In short: as §1

p70S6Kβ = molecular target: T35, p70S6Kβ (Homo sapiens, UniProt Q9UBS0)
T35 construct: purchased Carna Biosciences
In short: as §1

PKD3 = molecular target: T36, PKD3 (Homo sapiens, UniProt O94806)
T36 construct: purchased Carna Biosciences
In short: as §1

T30 sequence (Q00535 whole entry): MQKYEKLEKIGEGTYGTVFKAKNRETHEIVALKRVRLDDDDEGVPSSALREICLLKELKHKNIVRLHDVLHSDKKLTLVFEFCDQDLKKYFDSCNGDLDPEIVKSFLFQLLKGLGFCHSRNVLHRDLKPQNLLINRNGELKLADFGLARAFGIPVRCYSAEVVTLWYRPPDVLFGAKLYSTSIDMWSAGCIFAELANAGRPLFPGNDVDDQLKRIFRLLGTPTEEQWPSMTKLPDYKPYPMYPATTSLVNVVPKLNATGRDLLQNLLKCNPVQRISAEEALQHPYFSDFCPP
T30 sequence (Q15078 99-307 partner limits assumed): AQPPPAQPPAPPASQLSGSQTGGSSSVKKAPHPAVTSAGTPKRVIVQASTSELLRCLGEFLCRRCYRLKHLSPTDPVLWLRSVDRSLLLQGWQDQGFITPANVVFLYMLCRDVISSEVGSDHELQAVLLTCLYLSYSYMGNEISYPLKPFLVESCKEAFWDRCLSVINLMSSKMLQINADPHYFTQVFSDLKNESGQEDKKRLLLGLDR
T17 sequence (Q00526 whole entry): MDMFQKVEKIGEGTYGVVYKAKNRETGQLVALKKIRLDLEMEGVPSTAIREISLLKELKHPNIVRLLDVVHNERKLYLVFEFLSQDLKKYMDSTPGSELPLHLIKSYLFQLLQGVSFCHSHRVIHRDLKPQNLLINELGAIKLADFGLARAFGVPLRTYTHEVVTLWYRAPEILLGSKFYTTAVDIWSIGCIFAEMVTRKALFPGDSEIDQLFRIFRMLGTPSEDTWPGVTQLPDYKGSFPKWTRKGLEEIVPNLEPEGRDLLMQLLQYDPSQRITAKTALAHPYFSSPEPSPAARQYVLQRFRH
T17 sequence (P24864 whole entry, further chain): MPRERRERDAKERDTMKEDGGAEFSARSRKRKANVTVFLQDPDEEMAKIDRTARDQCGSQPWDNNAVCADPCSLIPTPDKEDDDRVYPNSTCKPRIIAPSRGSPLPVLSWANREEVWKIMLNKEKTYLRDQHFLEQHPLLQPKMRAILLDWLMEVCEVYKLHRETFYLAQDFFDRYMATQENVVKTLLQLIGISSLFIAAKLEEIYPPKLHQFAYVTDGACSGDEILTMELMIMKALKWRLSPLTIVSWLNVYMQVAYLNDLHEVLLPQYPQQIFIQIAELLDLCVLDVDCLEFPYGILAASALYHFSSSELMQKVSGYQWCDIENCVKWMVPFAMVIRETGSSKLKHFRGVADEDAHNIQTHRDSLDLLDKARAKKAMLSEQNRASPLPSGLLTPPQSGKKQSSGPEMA
T28 sequence (Q04912 25-1400): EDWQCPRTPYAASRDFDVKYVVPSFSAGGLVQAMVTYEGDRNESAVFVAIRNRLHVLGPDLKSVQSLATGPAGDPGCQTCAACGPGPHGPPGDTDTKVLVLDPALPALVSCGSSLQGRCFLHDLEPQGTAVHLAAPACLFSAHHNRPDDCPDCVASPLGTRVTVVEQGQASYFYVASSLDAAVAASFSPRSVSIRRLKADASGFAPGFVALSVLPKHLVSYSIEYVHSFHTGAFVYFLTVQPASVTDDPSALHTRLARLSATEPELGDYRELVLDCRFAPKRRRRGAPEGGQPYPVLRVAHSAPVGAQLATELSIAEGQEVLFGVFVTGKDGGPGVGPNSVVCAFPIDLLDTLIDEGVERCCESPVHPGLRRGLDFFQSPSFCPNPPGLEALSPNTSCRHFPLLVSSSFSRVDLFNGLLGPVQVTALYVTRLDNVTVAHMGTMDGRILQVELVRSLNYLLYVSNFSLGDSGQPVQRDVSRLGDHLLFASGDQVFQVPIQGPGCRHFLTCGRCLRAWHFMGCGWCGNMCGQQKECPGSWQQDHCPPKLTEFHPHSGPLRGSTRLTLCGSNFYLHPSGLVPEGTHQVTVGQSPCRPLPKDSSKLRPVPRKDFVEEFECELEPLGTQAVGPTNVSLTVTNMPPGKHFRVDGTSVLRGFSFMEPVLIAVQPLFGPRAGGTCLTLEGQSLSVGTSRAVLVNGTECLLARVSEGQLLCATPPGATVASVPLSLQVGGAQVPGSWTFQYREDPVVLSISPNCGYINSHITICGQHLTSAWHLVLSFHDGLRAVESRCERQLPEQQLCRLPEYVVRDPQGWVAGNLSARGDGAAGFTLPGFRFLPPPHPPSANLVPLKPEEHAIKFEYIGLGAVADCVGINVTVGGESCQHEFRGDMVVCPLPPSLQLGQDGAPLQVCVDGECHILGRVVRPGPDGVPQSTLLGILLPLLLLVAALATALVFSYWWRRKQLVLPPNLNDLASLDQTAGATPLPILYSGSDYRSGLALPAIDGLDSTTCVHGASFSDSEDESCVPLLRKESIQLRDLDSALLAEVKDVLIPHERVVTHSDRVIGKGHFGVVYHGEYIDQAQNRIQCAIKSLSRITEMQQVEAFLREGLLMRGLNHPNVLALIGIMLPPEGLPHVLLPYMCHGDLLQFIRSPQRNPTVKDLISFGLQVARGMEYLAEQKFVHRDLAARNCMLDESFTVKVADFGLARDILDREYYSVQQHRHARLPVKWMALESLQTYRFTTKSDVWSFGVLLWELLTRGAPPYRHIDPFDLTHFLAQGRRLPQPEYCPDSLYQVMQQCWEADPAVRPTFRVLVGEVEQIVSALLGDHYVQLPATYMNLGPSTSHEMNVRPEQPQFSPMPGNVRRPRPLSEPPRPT
T18 sequence (P07948 whole entry): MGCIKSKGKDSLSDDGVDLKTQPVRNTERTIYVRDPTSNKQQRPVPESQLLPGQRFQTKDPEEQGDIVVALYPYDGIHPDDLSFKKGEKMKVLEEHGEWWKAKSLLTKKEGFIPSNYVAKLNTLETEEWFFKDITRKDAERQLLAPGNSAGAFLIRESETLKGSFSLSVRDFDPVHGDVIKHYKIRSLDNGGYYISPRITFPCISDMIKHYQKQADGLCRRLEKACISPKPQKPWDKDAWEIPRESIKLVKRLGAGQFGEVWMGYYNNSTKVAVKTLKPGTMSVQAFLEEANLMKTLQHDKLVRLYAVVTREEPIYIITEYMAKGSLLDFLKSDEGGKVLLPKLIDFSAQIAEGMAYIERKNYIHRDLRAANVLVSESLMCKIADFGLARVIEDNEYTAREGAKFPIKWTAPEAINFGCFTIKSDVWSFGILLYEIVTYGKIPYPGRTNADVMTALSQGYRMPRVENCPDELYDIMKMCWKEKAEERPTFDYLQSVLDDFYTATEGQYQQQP
T19 sequence (Q7KZI7 whole entry): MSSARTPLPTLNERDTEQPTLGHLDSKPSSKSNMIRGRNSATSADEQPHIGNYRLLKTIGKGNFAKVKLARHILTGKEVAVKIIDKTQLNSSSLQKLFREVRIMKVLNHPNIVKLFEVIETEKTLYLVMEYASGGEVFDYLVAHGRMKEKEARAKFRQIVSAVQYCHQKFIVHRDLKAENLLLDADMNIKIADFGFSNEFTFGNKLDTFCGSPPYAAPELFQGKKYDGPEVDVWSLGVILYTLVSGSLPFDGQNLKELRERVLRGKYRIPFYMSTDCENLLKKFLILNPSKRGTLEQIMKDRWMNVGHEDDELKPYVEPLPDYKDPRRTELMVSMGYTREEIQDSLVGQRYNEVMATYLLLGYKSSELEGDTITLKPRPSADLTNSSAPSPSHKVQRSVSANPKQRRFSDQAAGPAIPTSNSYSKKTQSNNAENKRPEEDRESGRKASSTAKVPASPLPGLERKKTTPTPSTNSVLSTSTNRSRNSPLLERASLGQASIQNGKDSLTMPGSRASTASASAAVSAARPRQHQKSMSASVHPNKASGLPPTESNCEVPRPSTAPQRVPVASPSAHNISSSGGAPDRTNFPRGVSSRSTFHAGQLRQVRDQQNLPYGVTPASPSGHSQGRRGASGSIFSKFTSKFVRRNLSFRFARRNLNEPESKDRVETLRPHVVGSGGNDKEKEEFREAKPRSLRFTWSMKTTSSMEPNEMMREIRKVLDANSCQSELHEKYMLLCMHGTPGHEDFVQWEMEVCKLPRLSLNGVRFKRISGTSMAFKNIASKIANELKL
T9 sequence (P16234 24-1089): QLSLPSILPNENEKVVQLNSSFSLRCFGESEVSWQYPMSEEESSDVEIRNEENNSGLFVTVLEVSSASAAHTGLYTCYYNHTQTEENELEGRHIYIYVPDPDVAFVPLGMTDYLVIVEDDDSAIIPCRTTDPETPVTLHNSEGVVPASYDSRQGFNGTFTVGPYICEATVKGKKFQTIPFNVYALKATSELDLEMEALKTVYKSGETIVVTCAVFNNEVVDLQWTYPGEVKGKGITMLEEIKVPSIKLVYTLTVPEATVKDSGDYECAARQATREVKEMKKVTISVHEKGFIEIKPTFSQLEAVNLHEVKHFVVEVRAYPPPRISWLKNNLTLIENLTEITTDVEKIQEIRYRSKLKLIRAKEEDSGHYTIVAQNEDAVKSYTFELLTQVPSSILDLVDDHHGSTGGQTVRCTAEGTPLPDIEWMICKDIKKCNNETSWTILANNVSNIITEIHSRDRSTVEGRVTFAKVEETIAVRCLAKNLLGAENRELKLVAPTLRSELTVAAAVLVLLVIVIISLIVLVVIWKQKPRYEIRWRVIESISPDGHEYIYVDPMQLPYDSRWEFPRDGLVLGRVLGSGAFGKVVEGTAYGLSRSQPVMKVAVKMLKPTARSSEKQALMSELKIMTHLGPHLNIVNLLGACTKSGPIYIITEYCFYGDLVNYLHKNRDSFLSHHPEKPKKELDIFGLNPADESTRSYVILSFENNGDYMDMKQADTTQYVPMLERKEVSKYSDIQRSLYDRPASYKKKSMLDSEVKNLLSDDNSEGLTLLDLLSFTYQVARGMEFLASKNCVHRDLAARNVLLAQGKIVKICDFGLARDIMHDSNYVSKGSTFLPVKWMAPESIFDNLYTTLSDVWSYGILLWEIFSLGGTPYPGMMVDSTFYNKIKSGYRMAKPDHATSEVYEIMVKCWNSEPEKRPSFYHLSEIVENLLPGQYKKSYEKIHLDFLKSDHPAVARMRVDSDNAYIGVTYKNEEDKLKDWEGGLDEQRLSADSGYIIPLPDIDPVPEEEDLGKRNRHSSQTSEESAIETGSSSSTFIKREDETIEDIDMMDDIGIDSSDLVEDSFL

`[H]/N=C1/NC(=O)C(=Cc2ccc3c(c2)CCO3)S1` [CaNDY, (Z)-5-[(2,3-dihydrobenzofuran-5-yl)methylene]-2-iminothiazolidin-4-one] was tested, and the “%Activity” value (BTK) was 85.7%, the remaining activity at 1 µM (EPHB3) was 98.6% and the remaining activity at 1 µM (PKD1) was 72.9%. The remaining activity at 1 µM (SPHK1) was 83.5%, the “%Activity” value (JNK1) was 102.4% and the remaining activity at 1 µM (MELK) was 91.5%. For the same compound, the remaining activity at 1 µM (PLK3) was 95.9%, the “%Activity” value (EGFR(d746-750)) was 104.8% and the remaining activity at 1 µM (PDGFRα) was 84.1%. The “%Activity” value (CLK3) was 16.5%, the remaining activity at 1 µM (KIT(T670I)) was 96.6% and the remaining activity at 1 µM (QIK) was 99.5%. For the same compound, the “%Activity” value (EGFR(L861Q)) was 103.3%, the remaining activity at 1 µM (TRKB) was 101% and the remaining activity at 1 µM (EEF2K) was 97.2%. For the same compound, the remaining activity at 1 µM (CDK4/CycD3) was 86.4%, the “%Activity” value (CDK3/CycE1) was 94.7% and the remaining activity at 1 µM (LYNa) was 97.6%. The remaining activity at 1 µM (MARK2) was 97.5%, the remaining activity at 1 µM (DAPK1) was 80.6% and the remaining activity at 1 µM (PEK) was 90.4%. It also gave a remaining activity at 1 µM (KIT(V654A)) of 98.5%, a remaining activity at 1 µM (MUSK) of 98.4% and a remaining activity at 1 µM (SGK) of 93.6%. For the same compound, the remaining activity at 1 µM (NEK4) was 86.2%, the remaining activity at 1 µM (DYRK3) was 11% and the remaining activity at 1 µM (PKCι) was 101%. The remaining activity at 1 µM (RON) was 98.6%, the remaining activity at 1 µM (MARK1) was 94.4% and the remaining activity at 1 µM (CDK5/p25) was 88.5%. It also gave a remaining activity at 1 µM (ROCK2) of 103%, a remaining activity at 1 µM (LTK) of 96.9% and a remaining activity at 1 µM (FRK) of 102%. For the same compound, the remaining activity at 1 µM (skMLCK) was 96.2%, the remaining activity at 1 µM (p70S6Kβ) was 88.9% and the remaining activity at 1 µM (PKD3) was 85.9%.
